According to US20100035848A1, “THERAPY FOR DISORDERS OF THE PROXIMAL DIGESTIVE TRACT” (priority 2008, published 2010):
Where “and” joins values, the source holds several entries; their conditions need not be identical. Equal entries are not always repeated.

What was measured:
ACE2 = target: T1, ACE2 (Rattus norvegicus, UniProt Q5EGZ1); experiment: Acute diclofenac-induced gastric toxicity in rats: ACE2 activity in stomach tissue; format: in vivo; conditions: Group C: GL1001 oral before diclofenac 50 mg/kg; vehicle-diclofenac Group B 880 ± 39; p<0.0001
T1 construct: from tissue; host or cells: rat stomach (excluding forestomach) homogenate
T1 sequence (Q5EGZ1 18-805): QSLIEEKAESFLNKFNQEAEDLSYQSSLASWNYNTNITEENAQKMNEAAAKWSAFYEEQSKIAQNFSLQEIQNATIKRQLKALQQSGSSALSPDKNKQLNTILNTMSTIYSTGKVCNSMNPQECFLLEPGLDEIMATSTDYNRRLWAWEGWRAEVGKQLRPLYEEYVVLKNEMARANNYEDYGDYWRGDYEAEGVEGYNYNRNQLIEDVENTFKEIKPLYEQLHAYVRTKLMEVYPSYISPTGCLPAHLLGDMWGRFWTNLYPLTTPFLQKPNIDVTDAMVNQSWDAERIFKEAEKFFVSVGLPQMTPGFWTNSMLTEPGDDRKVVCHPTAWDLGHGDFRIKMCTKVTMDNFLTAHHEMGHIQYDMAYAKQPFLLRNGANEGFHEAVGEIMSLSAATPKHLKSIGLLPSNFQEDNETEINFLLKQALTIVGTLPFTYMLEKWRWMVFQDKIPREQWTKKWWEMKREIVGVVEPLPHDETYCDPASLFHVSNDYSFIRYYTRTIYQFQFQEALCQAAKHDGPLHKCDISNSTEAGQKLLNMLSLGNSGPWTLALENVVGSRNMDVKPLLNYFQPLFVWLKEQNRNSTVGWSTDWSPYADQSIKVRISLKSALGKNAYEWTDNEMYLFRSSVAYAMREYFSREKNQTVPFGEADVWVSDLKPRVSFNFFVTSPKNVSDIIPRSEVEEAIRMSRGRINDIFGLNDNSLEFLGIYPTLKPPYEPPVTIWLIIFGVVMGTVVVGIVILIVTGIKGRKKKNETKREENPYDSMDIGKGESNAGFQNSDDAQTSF
Description: Male Wistar rats were deprived of food but not water for 16 hours prior to oral administration of GL1001 90 mg/kg, incubated for 30 minutes and then given oral diclofenac 50 mg/kg. Each group consisted of 6 rats. As a negative control, one group received vehicle pretreatment, and then received vehicle instead of diclofenac. A positive control group received PGE2 100 μg/kg orally, 30 minutes prior to administration of diclofenac. All treatments were administered by oral gavage.
Three hours after diclofenac treatment, all animals were sacrificed and stomachs were removed and imaged to determine the severity of gastric damage. Additionally, stomach tissue samples were taken to assess disease activity and pharmacodynamic effects. Gastric damage scores were determined from photographic images (Ma & Wallace (2003) Am. J. Physiol. Gastrointest. Liver Physiol. 279; 341-346). Removed stomachs were opened along the greater curvature, pinned out on a wax block, and photographed along a 25 mm ruler reference with a digital 35 mm camera. The lesion area was then determined using enlarged images and computer software (www.scioncorp.co/pages/scion_image_windows.htm) that allows superimposed drawing of the perimeter of a wound and calculation of the area based on the ruler reference. Stomach samples (excluding forestomach) were used for measurements of PGE2 concentration, MPO activity and ACE2 activity. […] Concentration of PGE2 from stomach tissue samples was performed as described by Souza et al. (2003), supra, and quantification was obtained by LC-MS. […] Last, the extent of inhibition of ACE2 activity was determined to establish whether GL1001 was effective in inhibiting its ACE2 target in stomach tissues. The ACE2 activity assay is similar to the method of Vickers et al. (2002) J. Biol. Chem. 277:14838-14843, wherein purified recombinant ACE2 (100 pM) and a quenched fluorescent substrate (100-150 μM APK (7-methoxycoumarin-4-yl)acetyl-Ala-Pro-Lys (2,4-dinitrophenyl)) are used in end-point fluorescence reactions (excitation 320 nm, emission 405 nm). […]
Data are expressed as means with standard errors. […]

[1] = test system: LPS-induced NF-κB dependent transcription; experiment: In vivo imaging of LPS-induced NF-κB dependent transcription in NF-κB::Luc mice; set-up: species or system mouse
Description: More particularly, transgenic NF-κB::Luc mice were generated using three NF-κB response elements from the Igκ light chain promoter fused to a firefly luciferase gene as described by Carlsen et al. (2002) J. Immunol. 168:1441-1446. Pronuclear microinjection of purified construct DNA was used to generate transgenic founders in the C57BL/6 XCBA/J background. Founders were subsequently back-crossed to the C57BL/6 albino background. All experimental protocols were approved by the Institutional Animal Care and Use Committee and conform to the ILAR guide for the care and used of laboratory animals. For in vivo imaging, NF-κB::Luc mice were injected intraperitoneally with luciferin (150 mg/1 kg) 10 minutes before imaging, anesthetized (using 1-3% isoflurane) and placed into a light-tight camera box. […] Signal data were also quantitated and archived using the Living Image® software. Photons of light were quantitated using an oval region of interest (ROI) of varying sizes depending on the procedure, as described further below.
GL1001 was further tested for in vivo anti-inflammatory activity by examining its effects on bacterial LPS-induced NF-κB dependent transcription in NF-κB::Luc mice. […] Mice were subjected to quantitative abdominal imaging at 2, 4 and 6 hours following LPS administration, as described above. […] Luciferase signal was quantitated from several regions of interest. […]

[2] = test system: activator protein-1 (AP-1); experiment: In vivo basal reporter luciferase expression in AP-1::Luc mice; set-up: species or system mouse; conditions: data not shown

CC(C)C[C@H](N[C@@H](Cc1cncn1Cc1cc(Cl)cc(Cl)c1)C(=O)O)C(=O)O [GL1001, (S,S)-2-[1-carboxy-2-[3-(3,5-dichlorobenzyl)-3H-imidazol-4-yl]-ethylamino]-4-methylpentanoic acid]
Gastric ACE2 activity (ACE2): 436 pmol/mg and 436 ± 20 pmol/mg
LPS induced NF-κB signaling response, abdominal region ([1]; GL1001 30, 100 and 300 mg/kg s.c. 1 hour before LPS i.v., FIG. 3): significantly reduced
LPS-induced NF-κB signaling, abdominal region ([1]; repeat with dose range 3-100 mg/kg s.c., effect at 30 and 100 mg/kg, FIG. 4): significantly reduced
effect on basal in vivo levels of reporter luciferase expression [2]: no significant effect
